Source: EP0955032A1, “COSMETIC” (Technoble Co., Ltd., priority 1996, dated 1997)
In brackets after ≈: the same amount, converted by molar mass.

Columns and labels:
intracellular tyrosinase = biological target: T1, intracellular tyrosinase (Mus musculus, UniProt P11344); assay: Experiments 2 and 5: inhibition of intracellular tyrosinase activity (Dopa value); type: cell-based; conditions: for Dopa value: Fig. 1, 2.5mM or 5mM DABA, 2.5mM DAPECSAM, two days, compared with blank and with DHBA at the same concentration
T1 construct: endogenous in cells; host or cells: B16 mouse melanoma cells
T1 sequence (P11344 19-533): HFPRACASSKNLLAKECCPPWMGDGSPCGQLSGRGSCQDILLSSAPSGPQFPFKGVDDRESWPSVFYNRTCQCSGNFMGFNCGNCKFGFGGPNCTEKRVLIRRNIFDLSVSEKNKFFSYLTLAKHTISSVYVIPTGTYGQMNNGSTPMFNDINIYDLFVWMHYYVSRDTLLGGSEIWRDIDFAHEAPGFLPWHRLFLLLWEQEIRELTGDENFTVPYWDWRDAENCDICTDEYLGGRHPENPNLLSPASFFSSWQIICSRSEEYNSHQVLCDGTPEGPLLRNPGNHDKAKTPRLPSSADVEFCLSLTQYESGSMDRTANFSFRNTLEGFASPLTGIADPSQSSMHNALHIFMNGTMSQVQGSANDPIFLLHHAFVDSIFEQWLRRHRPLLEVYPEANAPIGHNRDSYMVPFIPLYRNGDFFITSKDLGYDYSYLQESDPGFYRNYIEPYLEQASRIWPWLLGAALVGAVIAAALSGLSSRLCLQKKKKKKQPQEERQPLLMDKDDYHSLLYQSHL
Method: (§1) Cultured B16 mouse melanoma cells were inoculated to a 96-well microplate (Corning Ltd.) at the rate of 8000 cells /well and pre-incubated in the Eagle's MEM containing 5% (v/v) FBS for one day under 5% CO2 at 37° C. After the pre-incubation, the culture medium was replaced with the Eagle's MEM containing 5% FBS, also containing 2.5mM or 5mM 2,5-diacetoxy benzoic acid or 2.5mM of 2-(2',5'-diacetoxy-benzoiloxy) benzoic acid, whereupon incubation was continued for two days under 5% CO2 at 37° C.
(§2) After the incubation, the medium was removed and a surfactant (Triton X-100) was mixed with the cells. Then 5mM of L-dopa or 0.2% of 3-(4,5-dimethylthiazol-2-yl)-2,5-diphenyltetrazorium bromide (MTT) was mixed for tyrosinase reaction at 37° C. Then the Dopa value and MTT test value were measured at the wavelength of 490nm and 570-630nm respectively using a microplate reader (Model 450, Bio Rad Ltd.).
(§3) For comparison, two series of culture with 2.5mM or 5mM of 2.5-dihydroxy benzoic acid instead of the compounds used in the present invention, as well as a culture without compound were prepared to serve as the positive controls and blank respectively.
(§4) It is believed that the higher the Dopa value, the higher the intracellular tyrosinase activity, while the lower the MTT test value, the lower the cultured B16 mouse melanoma cell activity.
(§5) The compound expressed by Formula A was used as an example of the 2,5-dihydroxy benzoic acid derivatives to evaluate its inhibitory effect on intracellular tyrosinase activity in accordance with the same protocol as followed in Experiment 2. [drawing 23]
(§6) However, the concentration was set to 2.5mM and the compound was dissolved in dimethyl sulfoxide before being applied to the culture medium.
(§7) The medium containing dimethyl sulfoxide was used for the blank culture. The results are shown in the graphs in Fig. 4 (Dopa levels) and Fig. 5 (MTT levels).

B16 mouse melanoma cells [1] = assay: Experiments 2 and 5: MTT test value (cell activity); type: cell-based; conditions: for MTT value: Fig. 2, 2.5mM or 5mM DABA, 2.5mM DAPECSAM, two days, compared with DHBA cultures and blank
Method: as §1, §2, §3, §4, §5, §6, §7

in vitro = type: cell-based; conditions: rabbit, sirc-c cells
Method: Cultured rabbit cornea cells (SIRC-C) were inoculated to a 96-well microplate (Corning Ltd.) at the rate of 5000 cells/well, and pre-incubated with Eagle's MEM containing 5% (v/v) FBS for one day under 5% CO2 at 37° C. Then 0.2ml of Eagle's MEM containing 0.05% neutral red was added to the culture medium and incubation was continued for two days under the same conditions. Furthermore, 2,5-diacetoxy benzoic acid was added to the culture medium at the concentrations of 0.025% (w/v) (10.5mM), 0.05% (w/v) (21mM), 0.1% (w/v) (42mM) or 0.2% (w/v) (84mM) and incubated again for two days under 5% CO 2 at 37° C.
For comparison, cultures with 30ug/ml, 60ug/ml or 90ug/ml of sodium dodecyl sulfate instead of 2,5-diacetoxy benzoic acid and without any compound were prepared and served as the positive control and the blank respectively.
The cultures were tested by analyzing SIRC-C neutral red intake, which is one of the alternative methods of eye-irritation test, and the midpoint cytotoxicity (NR50) value was derived from the neutral red intake rate to evaluate the potential irritation effect.
It is believed that, since the neutral red intake decreases with the increase in the irritation of the compound to SIRC-C, the higher the NR50 concentration of the sample solution, the lower the irritation to the cells.

B16 mouse melanoma cells [2] = assay: Experiment 1: gross observation of cell pellets after culture with sample; type: cell-based; conditions: 5mM sample with 50mM c-AMP, three days; compared with blank culture
Method: (§8) Cultured B16 mouse melanoma cells (6x10^4 cells) were inoculated to Eagle's minimum essential medium (MEM) containing 5% (v/v) of fetal bovine serum (FBS) and pre-incubated for one day under 5% CO2 at 37° C before 4 days incubation with 0.1% D-glucosamine under the same conditions. Then the culture medium was replaced with one that contained 50mM of adenosine 3',5'-cyclic phosphate (c-AMP) and 5mM of 2,5-acetoxy benzoic acid as the sample, and incubated under 5% CO2 for three days at 37° C.
(§9) For comparison, a separate series of incubation was conducted under the same conditions using the same culture medium without 2,5-diacetoxy benzoic acid, and served as a blank.
After the incubation, the cells were isolated from the medium by centrifugation and made into a pellet.

T1-tyrosinase = assay: Experiment 1: SDS electrophoresis of intracellular tyrosinase isozymes (T1); type: cell-based, mouse; conditions: 5mM sample, three days; compared with blank culture
Method: as §8, §9
(§10) Then the culture samples were analyzed by SDS electrophoresis for detection of B16 mouse melanoma intracellular tyrosinase isozymes. The conditions of the electrophoresis were: gel = polyacrylamide gel (T=7.5% w/v, C=3% w/v); buffer solution = 0.025 M tris- 0.192 M glycine buffer solution (pH = 8.3) containing 0.1% (v/v) sodium dodecyl sulfate (SDS); amount of application = 20uL per well [the mixing ratio of the buffer A (38ml of 0.125M tris-HCl buffer, 10ml of glycerin, 2g of SDS and 3mg of bromphenol blue)/culture sample = 1/1]. The concentration of the sample was adjusted to 1600ug/ml.

T3-tyrosinase = assay: Experiment 1: SDS electrophoresis of intracellular tyrosinase isozymes (T3); type: cell-based, mouse; conditions: 5mM sample, three days; compared with blank culture
Method: as §8, §9, §10

cyclooxygenase = assay: Experiment 3: inhibition of cyclooxygenase activity (oxygen consumption); type: biochemical; conditions: Fig. 3; 1.00ml of 5mM or 10mM solution; compared with blank (purified water)
Method: A mixture solution was prepared using 3.57ml of 0.2M tris-HCl buffer solution containing 20mM of L-tryptophan, 0.03ml of 40mM hemoglobin solution, 0.20ml of 400unit/ml cyclooxygenase solution, and 1.00ml of 5mM or 10mM 2.5-diacetoxy benzoic acid solution.
For comparison, a mixture using 1.00ml of purified water instead of 1.00ml of 2,5-diacetoxy benzoic acid was prepared to serve as a blank.
The mixture was incubated for five minutes at 37° C, and then 0.20ml of 0.2M tris-HCl buffer solution containing 2mM of arachidonic acid was added to the mixture for cyclooxygenase reaction. Immediately after the reaction started, the amount of dissolved oxygen in the reaction solution was measured using a biological oxygen monitor (YSI Model 5300, Meridian Instruments Far East, Ltd.). On the basis of the measurement of the dissolved oxygen level, the change in oxygen consumption attendant on the progress of the reaction time was determined.
It is believed that the less the oxygen consumption, the more the cyclooxygenase was inhibited.

## COC(=O)c1ccccc1OC(=O)c1cc(OC(C)=O)ccc1OC(C)=O [Formula A]
Intracellular tyrosinase; Experiment 5, Fig. 4, 2.5mM, dissolved in dimethyl sulfoxide, blank with dimethyl sulfoxide
  intracellular tyrosinase activity (Dopa levels): significantly inhibited
B16 mouse melanoma cells [1]; Experiment 5, Fig. 5, 2.5mM, dissolved in dimethyl sulfoxide, blank with dimethyl sulfoxide
  cell activity (MTT levels): not the cell activity

## CCCCCCCCCCCCOS(=O)(=O)[O-].[Na+] [SDS, sodium dodecyl sulfate, reference compound]
In vitro
  CC50 at 48 h: ~60 µg/mL

## COC(=O)c1ccccc1OC(=O)c1cc(OC(C)=O)ccc1OC(C)=O [DAPECSAM, 2-(2'5'-diacetoxy-benzoiloxy) benzoic acid methyl ester]
Intracellular tyrosinase
  Dopa value: much lower than that of the blank
B16 mouse melanoma cells [1]
  MTT value: not much lower

## CC(=O)Oc1ccc(OC(C)=O)c(C(=O)O)c1 [DABA, 2,5-diacetoxy benzoic acid]
B16 mouse melanoma cells [2]
  gross observation of pellets: significantly whitened
T1-tyrosinase
  band of T1-tyrosinase: significantly reduced
T3-tyrosinase
  T3-tyrosinase band: disappeared
Intracellular tyrosinase
  Dopa value: much lower than that of the blank
Intracellular tyrosinase; within a concentration range that did not inhibit cell activity
  inhibitory effect on intracellular tyrosinase compared with kojic acid and albutin: the same or even higher
B16 mouse melanoma cells [1]
  MTT value: not much lower
cyclooxygenase
  increase in oxygen consumption attendant upon progress of reaction time: much lower
In vitro
  CC50 at 48 h: 1000 to 2000 µg/mL (≈ 4.2 to 8.4 mM)
